Test systems include MDA-MB-468 breast; NCI-H226 lung; SR leukemia; MOLT-4 leukemia; UACC-62 melanoma; SF-268 CNS; SK-MEL-28 melanoma; SK-OV-3 ovarian; SNB-19 CNS; CCRF-CEM leukemia; SNB-75 CNS; OVCAR-4 ovarian; SN12C renal; HL-60(TB) leukemia; T-47D breast; 786-0 renal; HS 578T breast; DU-145 prostate; OVCAR-5 ovarian; CAKI-1 renal; TK-10 renal; UO-31 renal; BT-549 breast; OVCAR-3 ovarian; PC-3 prostate; HOP-92 NSCLC; HOP-62 NSCLC; EKVX NSCLC; A498 renal.

Holding throughout (experiment): DTP human tumour cell line panel, 48 h

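Test compounds were applied to cells in 96-well plates for 48 hours at 5 doses. GI50 marks 50% less growth. TGI is the concentration that stops growth completely.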 Some results are limits rather than exact numbers.

Turning to `CN(C)C(=O)c1cc2cnc(Nc3ccc(-c4csc5c(=S)cc(N6CCOCC6)oc45)cc3)nc2n1C1CCCC1`, in the assay on MDA-MB-468 breast, the GI50 (in general, the concentration at which growth is held to half of that of the control) is 0.397 µM and the TGI (usually the concentration at which net growth stops) stood at 2.37 µM.

For `C=C1C(=O)O[C@H]2[C@H]1CC/C(COC(=O)C(=O)c1cn(Cc3ccccc3)c3ccccc13)=C\CC[C@@]1(C)O[C@@H]21`, in the assay with MDA-MB-468 breast, the GI50 was 1.88 µM and the TGI was 3.8 µM.

`COc1cc2nc3cc([N+](=O)[O-])ccc3c(NCCCNCCO)c2cc1OC`: in the assay on MDA-MB-468 breast, the concentration for 50% growth inhibition (GI50) is 0.193 µM and the concentration for total growth inhibition (TGI) amounted to 0.467 µM.

For the compound `O=C(NC1=CC(=O)c2ccccc2C1=O)c1ccccc1`, in the assay with MDA-MB-468 breast, the GI50 is 1.08 µM and the concentration for total growth inhibition (TGI) stood at 2.41 µM.

On to `CC(C)(C)c1cc(C(C)(C)C)cc(S(=O)(=O)Nc2cc3ccccc3cc2C(=O)NCCN)c1`, for which, in the assay on MDA-MB-468 breast, the GI50 is 1.85 µM and the TGI was 3.39 µM.

For `COc1ccccc1CNCCCN1C(=O)c2ccc3c4c(ccc(c24)C1=O)C(=O)N(CCCOCCCCOCCCN)C3=O`, in the assay on MDA-MB-468 breast, the GI50 is 0.288 µM and the TGI was 1.32 µM.

For `CC(C)n1nc(-c2cc3cc(O)ccc3[nH]2)c2c(N)ncnc21`, in the assay with MDA-MB-468 breast, the GI50 is 0.163 µM and the TGI came out at 1.01 µM.

Regarding `CN1CCN(CCCOc2ccc3nc(Nc4ccc(Cl)c(C(F)(F)F)c4)ccc3c2)CC1`, in the assay on MDA-MB-468 breast, the GI50 was 12.2 µM and the total growth inhibition concentration (TGI) is 26.9 µM.

As to `CCCCC(O)(c1ccc(Cl)cc1)C(CN1CCOCC1)c1ccc(Cl)cc1` (stereo not drawn), in the assay with MDA-MB-468 breast, the GI50 is 11.2 µM and the total growth inhibition concentration (TGI) came to 25.9 µM.

For `CNc1ccc(C(=O)CC(O)CCC(C)C2OC(=O)CC(O)CC(=O)CC(O)CC(O)CC(O)CC(O)CC3(O)CC(O)C(C(=O)OC)C(CC(O[C@@H]4O[C@H](C)[C@@H](O)[C@H](N)[C@@H]4O)/C=C/C=C/C=C/C=C/C=C/C=C/C=C/C2C)O3)cc1` (stereo partly drawn), in the assay with MDA-MB-468 breast, the GI50 is 5.14 µM and the TGI turned out to be 25 µM.

On to `NC(=O)c1c(NC(=O)c2ccc(C(F)(F)F)cc2)sc2c1CCC(=O)C2`, for which, in the assay on MDA-MB-468 breast, the GI50 was 1.66 µM and the TGI is 4.22 µM.

Consider `COc1cc2c(c(OC)c1OC)-c1ccc(OC)c(=O)cc1[C@@H](NC(=O)c1ccccc1)CC2`, for which, in the assay on MDA-MB-468 breast, the GI50 is 0.0552 µM and the TGI is greater than 100 µM.

For `NS(=O)(=O)c1ccc(N=Nc2c(O)[nH]c3ccc(-c4cnco4)cc23)cc1`, in the assay on MDA-MB-468 breast, the GI50 is greater than 25 µM and the TGI is greater than 25 µM.

For `COc1cc(-c2ccc3c(c2)NC(=O)/C3=C\c2ccc[nH]2)ccc1O`, in the assay on MDA-MB-468 breast, the concentration for 50% growth inhibition (GI50) was 0.179 µM and the TGI was greater than 50 µM.

In the case of `O=C(N/N=C/c1ccc(Cl)cc1)c1ccc(C(F)(F)F)nc1Nc1cccc(C(F)(F)F)c1`, in the assay on MDA-MB-468 breast, the GI50 is 1.12 µM and the TGI worked out at 4.28 µM.

Consider `COc1ccc(-c2n[nH]nc2-c2cc(OC)c(OC)c(OC)c2)cc1`, for which, in the assay on MDA-MB-468 breast, the 50% growth inhibitory concentration (GI50) is less than 0.01 µM and the TGI was less than 0.01 µM.

Consider `COc1ccc(Cn2cc3c(c2-c2ccccc2)CC(C)(C)c2cnoc2-3)cc1`, for which, in the assay with MDA-MB-468 breast, the GI50 was 0.542 µM and the TGI is 5.91 µM.

For `CN1CCN(Cc2ccc(NC(=O)c3cncc(C#Cc4cnc5ccc(O[C@@H]6CCOC6)nn45)c3)cc2C(F)(F)F)CC1`, in the assay with MDA-MB-468 breast, the GI50 is 0.209 µM and the total growth inhibition concentration (TGI) was found to be 0.834 µM.

In the case of `COC(=O)[C@H](C)NC(=O)NC(=O)NC(=O)CI`, in the assay on MDA-MB-468 breast, the GI50 was 9.14 µM and the TGI was 23.5 µM.

Regarding `COc1nc2ccccc2cc1-c1nc2c(cnn2-c2ccc(Br)cc2)c(=O)[nH]1`, in the assay on MDA-MB-468 breast, the GI50 is 0.0219 µM and the TGI turned out to be 0.616 µM.

`CCCCCCCC/C=C/CCCCCCCC(=O)OC[C@H]1O[C@@H](n2ccc(N)nc2=O)C(F)(F)[C@@H]1O`: in the assay with MDA-MB-468 breast, the GI50 was less than 0.0289 µM and the TGI was determined as 3.76 µM.

For `CCOC(=O)[C@@H](N)CCC(=O)N[C@@H](CSCc1ccccc1)C(=O)N[C@@H](C(=O)OCC)c1ccccc1`, in the assay with MDA-MB-468 breast, the GI50 was 11.9 µM and the TGI was found to be 24.9 µM.

For `COc1cc(/C=C/c2cc(/C=C/c3ccc(O)c(OC)c3)n(C(=O)Nc3ccc(F)c(Cl)c3)n2)ccc1O`, in the assay with MDA-MB-468 breast, the GI50 is 0.266 µM and the TGI is 0.829 µM.

As to `O=C1OC(C(O)CO)C(=O)C1=O` (stereo not drawn), in the assay with MDA-MB-468 breast, the GI50 is 1810 µM and the TGI was found to be 4350 µM.

Regarding `C[C@@]12CC=C3c4nc(Nc5cccc(O)c5)sc4CC[C@]3(C)[C@H]1CC[C@]1(C)C(=O)CC[C@@H]21`, in the assay with MDA-MB-468 breast, the GI50 is 2.29 µM and the total growth inhibition concentration (TGI) turned out to be 5.21 µM.

For the compound `CN1C/C=C\CCOc2cccc(c2)-c2ccnc(n2)Nc2cccc(c2)C1`, in the assay on MDA-MB-468 breast, the 50% growth inhibitory concentration (GI50) was 0.0642 µM and the TGI is 0.289 µM.

Regarding `c1cc(CNC23CC4CC(CC(C4)C2)C3)cc(C[N+](Cc2cccc(CNC34CC5CC(CC(C5)C3)C4)c2)(Cc2cccc(CNC34CC5CC(CC(C5)C3)C4)c2)Cc2cccc(CNC34CC5CC(CC(C5)C3)C4)c2)c1` (stereo not drawn), in the assay with MDA-MB-468 breast, the GI50 was 3.33 µM and the TGI turned out to be 7.03 µM.

As to `CNCc1cccc2c1OCCCCCC[C@@](C)(O)CC1(CC1)S(=O)(=O)c1ccc(cc1)-c1cnc(N)c(n1)C(=O)N2`, the GI50 was 1.53 µM with NCI-H226 lung; 0.0102 µM in the assay on MOLT-4 leukemia; 1.6 µM in the assay on UACC-62 melanoma; 1.41 µM with SF-268 CNS; 1.3 µM in the assay with SK-MEL-28 melanoma; 1.54 µM in the assay with SK-OV-3 ovarian. In addition, the GI50 was 1.88 µM in the assay on SNB-19 CNS; 0.0102 µM with CCRF-CEM leukemia; 0.213 µM with SNB-75 CNS; 2.93 µM in the assay with OVCAR-4 ovarian; 1.26 µM in the assay with SN12C renal; 0.0197 µM in the assay with HL-60(TB) leukemia. Besides, the GI50 with T-47D breast was 3.24 µM; in the assay on 786-0 renal, 0.0536 µM; in the assay on HS 578T breast, 0.28 µM; in the assay on DU-145 prostate, 1.03 µM; in the assay on OVCAR-5 ovarian, 2 µM; with CAKI-1 renal it was 0.365 µM. Also, the GI50 was 1.55 µM in the assay with TK-10 renal; 0.0741 µM with UO-31 renal; 0.716 µM in the assay on BT-549 breast; 1.26 µM in the assay with OVCAR-3 ovarian; 0.599 µM in the assay with PC-3 prostate; 1.82 µM in the assay on HOP-92 NSCLC. The GI50 in the assay with HOP-62 NSCLC is 1.98 µM; in the assay on EKVX NSCLC, 1.42 µM; with A498 renal, 3.93 µM. Moreover, the TGI was 4.18 µM in the assay on NCI-H226 lung; 0.173 µM in the assay on SR leukemia; 2.19 µM in the assay on MOLT-4 leukemia; 3.06 µM in the assay on UACC-62 melanoma; 4.18 µM in the assay with SF-268 CNS; 2.65 µM in the assay on SK-MEL-28 melanoma. The TGI with SK-OV-3 ovarian is 19.4 µM; with SNB-19 CNS it was 4.36 µM; in the assay with CCRF-CEM leukemia, 0.634 µM; with SNB-75 CNS, 16.3 µM; in the assay on OVCAR-4 ovarian it was 26.3 µM; with SN12C renal, 13.9 µM. In addition, the TGI in the assay on HL-60(TB) leukemia was 0.324 µM; in the assay on T-47D breast it was greater than 88.8 µM; in the assay with 786-0 renal, 14.2 µM; in the assay with HS 578T breast it was 4.3 µM; in the assay with DU-145 prostate, 2.88 µM; in the assay with OVCAR-5 ovarian it was 5.82 µM. The total growth inhibition concentration (TGI) in the assay on CAKI-1 renal turned out to be 5.76 µM; in the assay on TK-10 renal, 18.6 µM; in the assay on UO-31 renal it was 2.15 µM; in the assay on BT-549 breast, 14.5 µM; in the assay on OVCAR-3 ovarian it was 4.73 µM; in the assay with PC-3 prostate, 3.82 µM. The TGI in the assay with HOP-92 NSCLC was 4.55 µM; with HOP-62 NSCLC, 4.65 µM; in the assay on EKVX NSCLC, 4.86 µM; in the assay on A498 renal, 25.4 µM.

Consider `COC(=O)[C@@H](C)CNS(=O)(=O)N(c1cc(C(F)(F)F)cc(C(F)(F)F)c1)C1CCN(Cc2ccc(F)cc2)CC1`, for which, in the assay on MDA-MB-468 breast, the GI50 was 3.25 µM and the TGI came to 15.3 µM.

With `COc1cc2ncnc(Nc3ccc(C)c(O)c3)c2cc1OC`, in the assay with MDA-MB-468 breast, the GI50 was 2.39 µM and the TGI came out at 8.87 µM.
